Test results published in patent publication US5395836A, “8-tricycloalkyl xanthine derivatives” (Kyowa Hakko Kogyo Co., Ltd., priority 1993, dated 1995).
pKi: −log10 of the molar value.

Tests used:
[1] = Renal-protecting Effect (Glycerol-Induced Renal Failure Model); type: in vivo, rat (Wistar); details: ip, 24 h after glycerol; for Amount of creatinine in blood serum: 4.35 ± 0.23 (compound 3); for Amount of uria nitrogen in blood serum: 139.7 ± 10.2 (compound 3)
Description: A renal failure is a state where the renal function is lowered and the homeostasis of a body fluid can be no longer maintained. It is known that an acute renal failure characteristic of uriniferous tubule disorder is caused by subcutaneous or intramuscular injection of glycerol to rats [Can. J. Physiol.
Male Wistar rats were kept deprived of water for 18 hours, and served for the test. A test compound was intraperitoneally administered to the rats (dosage: 0.1 ml/100 g). After 30 minutes, the rats were anesthetized with ether and 50% glycerol was subcutaneously administered (dosage: 0.8 ml/100 g) to the rats, pinching the dorsal skin. Twenty four hours after the administration of glycerol, the rats were anesthetized with ether and 5 ml of blood was collected from the abdominal aorta. The collected blood was allowed to stand for 30 minutes or longer and then centrifuged at 3,000 rpm for 10 minutes, and the amounts of the serum creatinine and the serum urine-nitrogen (UN) were determined by auto analyzer (Olympus AU510) [creatinine test (Jaffe method), UN test (enzyme method); both tests were used in Olympus AU500/550 exclusive reagent […].

[2] = Activity on (R)-PIA-Induced Amnesia (step-through passive avoidance); type: in vivo, mouse (ddY-strain); details: oral, amnesia treatment +, n = 15, amnesia control 51.5 ± 17.0
Description: Anti-dementia effect of Compound (I) was determined with (R)-PIA[(R)-N^6 -(2-phenylisopropyl)adenosine]-induced dementia model [Jpn. J. Pharmacol. 52 (Suppl. II), 107P (1990)] As the experimental animal, groups of ddY-strain mice (weighing 20-25 g), each group consisting of fifteen mice, were used. The test was performed with a step-through type passive avoidance apparatus (the bright and dark box).
The bright and dark box was made up of a bright compartment (15×9×11 cm) lighted by 4 W white fluorescent light and a dark compartment (15×14×18 cm). […] In order to give a foot shock, the electric current (0.3 mA: 2 sec) may be passed through the grid floor of the dark compartment.
The compound to be tested was suspended in 0.3% aqueous solution of carboxymethyl cellulose (CMC) and the suspension was orally administered 60 minutes before the acquisition trial (to the normal control group and the amnesia control group which is subjected to the following amnesia treatment, only 0.3% CMC was administered). 30 minutes after the administration of the test compound, 0.3 mg/kg of (R)-PIA was administered intraperitoneally as amnesia-inducing treatment [(R)-PIA was not administered to the normal control group].
The training for acquisition of learning (acquisition trial) was carried out. The rat was introduced into the bright compartment, and after 10 seconds, the guillotine door was opened. The rat in the bright compartment rapidly moved into the dark compartment. As soon as the whole body of the rat entered the dark compartment, the guillotine door was closed and an electric current of 0.3 mA was passed through the grid floor for 2 seconds (foot shock). Immediately after the foot shock, the rat was taken out of the dark compartment.
The test trial for observing the retention and recall of the memory (recall trial) was carried out as follows. Twenty-four hours after the acquisition trial, the rat was placed in the bright compartment and the guillotine door was opened. The length of time before the rat entered the dark compartment (latency) was measured. The latency was measured up to 600 seconds and the latency longer than 600 seconds was recorded as 600 seconds.
The test of significance was carried out by Steel-test.

adenosine A1 receptor = target: T1, adenosine A1 receptor (Rattus norvegicus, UniProt P25099); assay: Adenosine Receptor Antagonizing Activity (Adenosine A1 Receptor Binding Test); details: rat corpus striatum; 3H-CHA 1.1 nM; 25° C., 90 min; Cheng-Prusoff
T1 construct: from tissue; host or cells: rat corpus striatum, washed membrane suspension
T1 sequence (P25099 1-326): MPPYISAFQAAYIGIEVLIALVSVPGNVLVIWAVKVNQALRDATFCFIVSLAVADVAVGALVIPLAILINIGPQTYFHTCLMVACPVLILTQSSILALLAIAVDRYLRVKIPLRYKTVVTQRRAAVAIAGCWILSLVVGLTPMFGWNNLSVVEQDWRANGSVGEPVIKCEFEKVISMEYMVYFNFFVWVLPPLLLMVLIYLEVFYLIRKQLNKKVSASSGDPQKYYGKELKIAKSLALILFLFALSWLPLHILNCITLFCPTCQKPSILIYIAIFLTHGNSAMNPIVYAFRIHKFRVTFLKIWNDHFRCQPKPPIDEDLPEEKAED
Description: The test was conducted according to the method of Bruns et al. [Proc. Natl. Acad. Sci. U.S.A., 77., 5547 (1980)] with slight modification.
Corpus striatum of a rat was suspended in ice-cooled 50 mM Tris hydroxymethyl aminomethane hydrochloride (Tris HCl) buffer (pH 7.7) by using Polytron homogenizer (manufactured by Kinematicas Co.). The suspension was centrifuged (50,000×g, 10 minutes), and the precipitate was suspended again in the same amount of 50 mM Tris HCl buffer. The suspension was centrifuged under the same conditions, and the final precipitate was suspended once again in 50 mM Tris HCl buffer to give a tissue concentration of 100 mg (wet weight)/ml. The tissue suspension was allowed to stand in the presence of 0.02 unit/mg tissue of adenosine deaminase (manufacture by Sigma Co.) at 37° C. for 30 minutes. The tissue suspension was centrifuged (50,000×g, 10 minutes) and to the obtained precipitates was added 50 mM Tris HCl buffer to give a tissue concentration of 10 mg (wet weight)/ml.
To 1 ml of the tissue suspension thus prepared, were added 50 μl of cyclohexyladenosine labeled with tritium (^3 H-CHA: 27 Ci/mmol, manufactured by New England Nuclear) (final concentration: 1.1 nM), and 50 μl of a test compound. The resulting mixture was allowed to stand at 25° C. for 90 minutes and then rapidly filtered by suction through a glass fiber filter (GF/C, manufactured by Whatman Co.). The filter was immediately washed three times with 5 ml each of ice-cooled 50 mM Tris HCl buffer, and transferred to a vial, and scintillator (EX-H by Wako Pure Chemical Industries, Ltd.) was added thereto. The radioactivity on the filter was determined with a liquid scintillation counter (manufactured by Packard Instrument Co.).
The inhibition rate (Ki value) of the test compound against the binding of A1 receptors (^3 H-CHA binding) was calculated by the equation of Cheng-Prusoff. [formula]

Diuretic Effect = type: in vivo, rat (Wistar); details: for Increase in amount of K+ excreted Δ(%) / Increase in amount of Na+ excreted Δ(%) / Increase in amount of urine Δ(%): control 0
Description: The experiment was performed by using Wistar rats (male; 150 to 300 g). The rats were starved for 18 hours prior to the administration of a test compound (n=4 to 5). After test compounds were dissolved in 0.4% methanol, 1% dimethylsulfoxide and 0.01N sodium hydroxide/physiological saline, and administered intravenously, the physiological saline (25 ml/kg) was orally administered. Alternatively, test compounds dissolved in the physiological saline (25 ml/kg) was orally administered to the rats. Urine was collected from the rats during 4 hours after the oral administration, and urine volume was measured by a graduated measuring cylinder, and the electrolytes in the urine (Na^+ and K^+) were determined by flame photometer (775 A manufactured by Hitachi, Ltd.).

CCCn1c(=O)c2[nH]c(C34C[C@H]5CC3C[C@@H](C4)[C@@H]5O)nc2n(CCC)c1=O (relative stereo) [Compound 3, 8-(Trans-9-hydroxy-3-tricyclo[3.3.1.0^3,7]nonyl)-1,3-dipropylxanthine]
Amount of creatinine in blood serum ([1]; 0.01 mg/kg, control 3.90 ± 0.24 (compounds 6, 7)): 2.00 ± 0.21 mg/dL
Amount of uria nitrogen in blood serum ([1]; 0.01 mg/kg, control 124.9 ± 7.5 (compounds 6, 7)): 69.9 ± 8.4 mg/dL
Amount of creatinine in blood serum ([1]; 0.1 mg/kg, control 4.55 ± 0.24 (compound 5)): 2.32 ± 0.16 mg/dL
Amount of uria nitrogen in blood serum ([1]; 0.1 mg/kg, control 137.2 ± 5.0 (compound 5)): 64.4 ± 4.5 mg/dL
Recall trial average reaction latency ([2]; 0.08 mg/kg): 404.3 ± 43.5 s
Recall trial average reaction latency ([2]; 0.31 mg/kg): 438.8 ± 43.0 s
Recall trial average reaction latency ([2]; 1.25 mg/kg): 445.5 ± 49.5 s
Recall trial average reaction latency ([2]; 5.0 mg/kg): 430.5 ± 43.2 s
pKi (adenosine A1 receptor): 9.64
Amount of K+ excreted (Diuretic Effect; iv, 3 μg/kg, n = 5, 4 hours, control 1.47 ± 0.31): 1.24 ± 0.10 mEq/kg
Na+/K+ (Diuretic Effect; iv, 3 μg/kg, n = 5, 4 hours, control 1.52): 2.99
Amount of Na+ excreted (Diuretic Effect; iv, 3 μg/kg, n = 5, 4 hours, control 2.23 ± 0.61): 3.71 mEq/kg
Amount of urine (Diuretic Effect; iv, 3 μg/kg, n = 5, urine over 4 hours, control 14.5 ± 1.8): 26.4 mL/kg
Increase in amount of K+ excreted Δ(%) (Diuretic Effect; po, 0.01 mg/kg, 4 hours): 11%
Increase in amount of Na+ excreted Δ(%) (Diuretic Effect; po, 0.01 mg/kg, 4 hours): 139%
Increase in amount of urine Δ(%) (Diuretic Effect; po, 0.01 mg/kg, 4 hours): 99%
Na+/K+ (Diuretic Effect; po, 0.01 mg/kg, 4 hours, control 1.00): 2.16
Increase in amount of K+ excreted Δ(%) (Diuretic Effect; po, 0.1 mg/kg, 4 hours): -9%
Increase in amount of Na+ excreted Δ(%) (Diuretic Effect; po, 0.1 mg/kg, 4 hours): 148%
Increase in amount of urine Δ(%) (Diuretic Effect; po, 0.1 mg/kg, 4 hours): 105%
Na+/K+ (Diuretic Effect; po, 0.1 mg/kg, 4 hours, control 1.00): 2.72
